Activity calls are given as the source filed them. The calls are words filed in the database; no cut-off is given here.
Legend:
[1] = Drug level in human MIAPaCa2 cells by LC-MS/MS analysis; format: ADME, cell-based; settings: mia paca-2
[2] = Inhibition of pig heart MDH using malic acid as substrate preincubated for 10 mins followed by substrate addition measured up to 5 mins by resorufin-based fluorescence assay; set-up: species or system Sus scrofa
[3] = system: Mus musculus; experiment: Clearance in CD1 mouse plasma at 2 mg/kg, iv measured over 24 hrs post dose by LC/MS/MS analysis; format: ADME, organism-based; settings: in vivo
[4] = biological target: Isocitrate dehydrogenase [NADP] cytoplasmic (Homo sapiens, UniProt O75874); experiment: Inhibition of wild type IDH1 (unknown origin) using isocitrate as substrate preincubated for 30 mins followed by substrate addition in presence of NADP+ measured up to 5 mins by resorufin-based fluorescence assay
Chain of Isocitrate dehydrogenase [NADP] cytoplasmic (O75874 whole entry): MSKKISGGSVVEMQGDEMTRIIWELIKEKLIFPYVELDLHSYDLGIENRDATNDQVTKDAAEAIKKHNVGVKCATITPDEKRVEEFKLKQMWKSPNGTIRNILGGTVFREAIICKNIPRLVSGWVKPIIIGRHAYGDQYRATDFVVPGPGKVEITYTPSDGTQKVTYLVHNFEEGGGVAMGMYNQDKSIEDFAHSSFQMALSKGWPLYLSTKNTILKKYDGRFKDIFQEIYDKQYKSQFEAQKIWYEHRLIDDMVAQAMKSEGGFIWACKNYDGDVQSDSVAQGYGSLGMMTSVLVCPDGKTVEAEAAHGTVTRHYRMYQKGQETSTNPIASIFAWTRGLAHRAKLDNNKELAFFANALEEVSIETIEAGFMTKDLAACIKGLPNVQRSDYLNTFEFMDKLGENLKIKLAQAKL

[5] = system: Mus musculus; experiment: Cmax in CD1 mouse plasma at 50 mg/kg, po measured over 24 hrs post dose by LC/MS/MS analysis; format: ADME, organism-based; set-up: dose 50 mg/kg, route oral; settings: in vivo
[6] = system: Liver; experiment: Drug metabolism in mouse liver microsomes assessed as glucuronidated metabolite formation measured over 90 mins in presence of NADPH/UDPGA; format: ADME, microsome
[7] = system: Mus musculus; experiment: AUClast in CD1 mouse plasma at 2 mg/kg, iv measured over 24 hrs post dose by LC/MS/MS analysis; format: ADME, organism-based; set-up: dose 2 mg/kg, time 0 - last, route intravenous; settings: in vivo
[8] = system: Liver; experiment: Drug metabolism in human liver microsomes assessed as glucuronidated metabolite formation measured over 90 mins in presence of NADPH/UDPGA; format: ADME, microsome
[9] = system: Mus musculus; experiment: Volume of distribution at steady state in CD1 mouse plasma at 2 mg/kg, iv measured over 24 hrs post dose by LC/MS/MS analysis; format: ADME, organism-based; settings: in vivo
[10] = Drug level in human A673 cells by LC-MS/MS analysis; format: ADME, cell-based
[11] = system: Mus musculus; experiment: AUClast in CD1 mouse plasma at 50 mg/kg, po measured over 24 hrs post dose by LC/MS/MS analysis; format: ADME, organism-based; set-up: dose 50 mg/kg, time 0 - last, route oral; settings: in vivo
[12] = system: Mus musculus; experiment: Oral bioavailability in CD1 mouse plasma at 50 mg/kg measured over 24 hrs post dose by LC/MS/MS analysis; format: ADME, organism-based; settings: in vivo
[13] = system: A673; experiment: Cytotoxicity against human A673 cells after 48 hrs by CellTiter-Glo assay; settings: A673, 48 h
[14] = system: MIA PaCa-2; experiment: Cytotoxicity against human MIAPaCa2 cells after 48 hrs by CellTiter-Glo assay; settings: MIA PaCa-2, 48 h
[15] = biological target: T1, L-lactate dehydrogenase (Homo sapiens, UniProt V9HWB9); experiment: Inhibition of LDH in human A673 cells assessed as reduction in lactate production preincubated for 2 hrs measured after 30 mins by high throughput fluorescence assay; format: cell-based
[16] = biological target: T2, L-lactate dehydrogenase A chain (Homo sapiens, UniProt P00338)
Description: (§1) Inhibition of human liver LDHA using sodium pyruvate as substrate after 5 mins in presence of NAPDH and in absence of EDTA by diaphorase/resazurin based fluorescence assay

[17] = biological target: T2, L-lactate dehydrogenase A chain; remark: listed apart in the source
Description: as §1

[18] = biological target: T2, L-lactate dehydrogenase A chain; remark: listed apart in the source
[19] = biological target: T2, L-lactate dehydrogenase A chain; remark: listed apart in the source
Description: Inhibition of human liver LDHA using sodium pyruvate as substrate after 5 mins in presence of NAPDH and EDTA by diaphorase/resazurin based fluorescence assay

[20] = biological target: T1, L-lactate dehydrogenase; experiment: Inhibition of LDH in human MIAPaCa2 cells assessed as reduction in lactate production preincubated for 2 hrs measured after 30 mins by high throughput fluorescence assay; format: cell-based
[21] = biological target: L-lactate dehydrogenase B chain (Homo sapiens, UniProt P07195); experiment: Inhibition of human erythrocytes LDHB using sodium pyruvate as substrate after 5 mins in presence of […] by diaphorase/resazurin based fluorescence assay
Chain of L-lactate dehydrogenase B chain (P07195 whole entry): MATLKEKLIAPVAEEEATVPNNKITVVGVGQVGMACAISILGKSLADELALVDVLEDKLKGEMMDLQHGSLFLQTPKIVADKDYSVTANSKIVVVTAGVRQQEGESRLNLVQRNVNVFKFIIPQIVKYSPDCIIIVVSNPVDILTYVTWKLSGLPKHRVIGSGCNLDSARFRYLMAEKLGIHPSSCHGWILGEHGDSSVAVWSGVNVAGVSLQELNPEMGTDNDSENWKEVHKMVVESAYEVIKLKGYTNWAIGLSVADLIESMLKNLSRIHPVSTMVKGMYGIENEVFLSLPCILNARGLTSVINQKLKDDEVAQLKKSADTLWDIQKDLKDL

[22] = system: MIA PaCa-2; experiment: Cytotoxicity against human MIAPaCa2 cells assessed as long term cell growth inhibition measured every 4 hrs for 120 hrs by incucyte zoom live cell analysis; format: functional, cell-based
[23] = system: A673; experiment: Cytotoxicity against human A673 cells assessed as long term cell growth inhibition measured every 4 hrs for 120 hrs by incucyte zoom live cell analysis; format: functional, cell-based
[24] = system: MIA PaCa-2; experiment: Cytoxicity against human MIAPaCa2 cells assessed as cell growth inhibition at 20 uM after 48 hrs by CellTiter-Glo assay; format: functional, cell-based

With `NS(=O)(=O)c1ccc(Cc2c(-c3cccc(-c4ccccc4)c3)nn(-c3nc(C(=O)O)cs3)c2C2CC2)cc1` the Drug uptake [1] was “Active”, the IC50 [2] was 42.4 µM and the CL [3] was 227 L/h/kg. The IC50 [4] was 33.5 µM, the Cmax [5] was 1200 nM and the Drug metabolism [6] was “Metabolite_Notdetected”. The AUClast [7] was 0.26 µM·h, the Drug metabolism [8] was “Metabolite_Notdetected” and the Vdss [9] was 5.6 L/kg. The Drug uptake [10] was “Active”, the AUClast [11] was 3.2 µM·h and the F [12] was 49%.
For `NS(=O)(=O)c1ccc(Cc2c(-c3ccc(F)c(F)c3)nn(-c3nc(C(=O)O)cs3)c2O)cc1`, the IC50 [13] was > 57 µM, the IC50 [14] was > 57 µM and the Drug uptake [1] was “Active”. The IC50 [2] was > 57 µM, the IC50 [4] was > 57 µM and the Drug uptake [10] was “Active”.
For `O=C(O)c1csc(-n2nc(-c3ccccc3)cc2C(F)(F)F)n1`, the inhibition [15] was “inactive”, the Efficacy [16] was 40 to 60% and the IC50 [17] was 22.2 µM. For the same compound, the EC50 [18] was > 100 µM, the IC50 [19] was 28.8 µM and the inhibition [20] was “inactive”.
In the case of `NS(=O)(=O)c1ccc(Cc2c(-c3cccc(Br)c3)nn(-c3nc(C(=O)O)cs3)c2O)cc1`, the Drug uptake [1] is reported as “Active”, the IC50 [21] is reported as 1.51 µM and the IC50 [4] is reported as > 57 µM. For the same compound, the Drug uptake [10] was “Active”.
With `Cc1nc2ccc(NC(=O)CCNC(=O)CCCc3ccc(CC(C(=O)O)C(=O)O)cc3)cc2s1` the IC50 [22] was > 20 µM, the Drug uptake [1] was “Active” and the IC50 [21] was 9.2 µM. The IC50 [2] was > 57 µM, the IC50 [4] was > 57 µM and the IC50 [23] was > 20 µM. For the same compound, the EC50 [18] was 1.6 µM, the IC50 [19] was 1.34 µM and the Drug uptake [10] was “Active”.
In the case of `NS(=O)(=O)c1ccc(Cc2cn(-c3nc(C(=O)O)cs3)nc2-c2ccccc2)cc1`, the Drug uptake [1] is reported as “Active”, the IC50 [2] is reported as > 57 µM and the IC50 [4] is reported as > 57 µM. The IC50 [17] was 0.177 µM, the IC50 [19] was 0.176 µM and the Drug uptake [10] was “Active”.
With `NS(=O)(=O)c1ccc(Cc2cn(-c3nc(C(=O)O)cs3)nc2-c2ccc(F)c(F)c2)cc1` the IC50 [13] was > 57 µM, the Drug uptake [1] was “Active” and the IC50 [21] was 0.129 µM. The IC50 [2] was > 57 µM, the IC50 [4] was > 57 µM and the IC50 [17] was 0.095 µM. For the same compound, the IC50 [19] was 0.095 µM and the Drug uptake [10] was “Active”.
In the case of `COc1ncc(-c2ccc3c(Nc4cc(Oc5cc(F)cc(F)c5)cc(C(=O)O)c4)c(S(=O)(=O)NC4CC4)cnc3c2)c(OC)n1`, the IC50 [15] is reported as 14.5 µM, the IC50 [22] is reported as 1.37 µM and the IC50 [13] is reported as > 57 µM. The IC50 [14] was 28.4 µM, the Drug uptake [1] was “Active” and the IC50 [2] was 37.8 µM. The IC50 [4] was > 57 µM, the IC50 [23] was 0.84 µM and the Drug uptake [10] was “Active”. For the same compound, the IC50 [20] was 12.6 µM.
In the case of `NS(=O)(=O)c1ccc(Cc2c(-c3cccc(-c4ccccc4)c3)nn(-c3nc(C(=O)O)cs3)c2CC2CC2)cc1`, the Drug uptake [1] is reported as “Active”, the CL [3] is reported as 294 L/h/kg and the IC50 [4] is reported as 29.8 µM. For the same compound, the Cmax [5] was 1780 nM, the Drug metabolism [6] was “Metabolite_Notdetected” and the AUClast [7] was 0.19 µM·h. For the same compound, the Drug metabolism [8] was “Metabolite_Notdetected”, the “growth inhibition (GI)” value [24] was “Active” and the Vdss [9] was 27 L/kg. The Drug uptake [10] was “Active”, the AUClast [11] was 2.5 µM·h and the F [12] was 50%.
In the case of `NS(=O)(=O)c1ccc(Cc2c(-c3ccccc3)nn(-c3nc(C(=O)O)cs3)c2-c2ccncc2)cc1`, the Drug uptake [1] is reported as “Active”, the IC50 [21] is reported as 2.82 µM and the IC50 [2] is reported as > 57 µM. For the same compound, the IC50 [4] was > 57 µM, the IC50 [17] was 6.23 µM and the IC50 [19] was 6.23 µM. The Drug uptake [10] was “Active”.
